The source of these data is US5360909A, “Phenoxyacetic acid compounds and medical preparations containing them” (Terumo Kabushiki Kaisha, priority 1992, dated 1994).

Structures are written as SMILES.

One experiment concerns thromboxane A2 (TXA2). Briefly: Antagonistic effect to TXA2: contraction of isolated guinea pig tracheal strips. The class given is cell-based, Hartley male guinea pigs. As to conditions: Cavia porcellus, in vitro, TXA2 10^-7 M, Tyrode solution 37° C. Here is the method: (§1) The in vitro IC50 value of the antagonistic effect of the compounds of the present invention to TXA2 and LTD4 was obtained, using the following test system. Tracheal strips isolated from Hartley male guinea pigs (weight: 300 to 500 g) were suspended under a tension of 0.3 g in a Tyrode solution at 37° C. in an organ bath, to which a mixed gas of oxygen (95%)-carbon dioxide (5%) was introduced. After letting the above stabilize for about one hour, TXA2 (produced by Cayman Co.) or LTD4 (produced by Wako Pure Chemicals CO.) was added to the organ bath in a concentration-of 10^-7 M and 10^-8 M respectively, whereupon the contraction of the sections was measured as a standard. The strips were treated with various amounts of the compounds of Examples 1-8, whereupon the contraction of the tracheal preparations upon dosing with TXA2 or LTDS4 was again measured. From the values thus measured, the IC50 (Inhibition concentration) of the compound added was calculated. The results are shown in Table 1 below; the smaller the amount of the compound, the stronger its effectiveness.

A further experiment relates to leukotriene D4 (LTD4). Nature of the experiment: Antagonistic effect to LTD4: contraction of isolated guinea pig tracheal strips. In kind it is cell-based, Hartley male guinea pigs. To be noted: Cavia porcellus, in vitro, LTD4 10^-8 M, Tyrode solution 37° C. How it is done:
as §1

For `O=C(O)COc1ccc(CCNS(=O)(=O)c2ccc(Cl)cc2)cc1NC(=O)c1cccc(OCc2ccc3ccccc3n2)c1` [Example 1, 4-[2-(4-chlorobenzenesulfonamido)ethyl]-2-[3-(2-quinolinemethoxy)benzoylamino]phenoxyacetic acid], the IC50 was 4.2 nM in the experiment on thromboxane A2 (TXA2) and 65 nM with leukotriene D4 (LTD4).

For `O=C(O)COc1ccc(CCNS(=O)(=O)c2ccccc2)cc1NC(=O)c1cccc(OCc2ccc3ccccc3n2)c1` [Example 2, 4-[2-(benzenesulfonylamino)ethyl]-2-[3-(2-quinolinemethoxy)benzoylamino]phenoxyacetic acid], the IC50 in the experiment with thromboxane A2 (TXA2) is 3.4 nM; with leukotriene D4 (LTD4) it was 38 nM.

Take `O=C(O)COc1ccc(CCNS(=O)(=O)c2ccc(Cl)cc2)c(OCc2ccc3ccccc3n2)c1` [Example 3, 4-[2-(4-chlorobenzenesulfonamido)ethyl]-3-(2-quinolinemethoxy)phenoxyacetic acid]: the IC50 in the experiment on thromboxane A2 (TXA2) was 3.5 nM; in the experiment on leukotriene D4 (LTD4), 8300 nM.

Take `O=C(O)COc1ccc(CCNS(=O)(=O)c2ccc(Cl)cc2)c(OCc2cccc(OCc3ccc4ccccc4n3)c2)c1` [Example 4, 4-[2-(4-chlorobenzenesulfonamido)ethyl]-3-(3-(2-quinolinemethoxy)benzyloxy]phenoxyacetic acid]: the IC50 in the experiment on thromboxane A2 (TXA2) amounted to 590 nM; in the experiment on leukotriene D4 (LTD4), 210 nM.

Take `O=C(O)COc1ccc(CCNS(=O)(=O)c2ccc(Cl)cc2)cc1NC(=S)Nc1cccc(OCc2ccc3ccccc3n2)c1` [Example 5, 4-[2-(4-chlorobenzenesulfonamido)ethyl]-2-{3-[3-(2-quinolinemethoxy)phenyl]thioureido}phenoxyacetic acid]: the IC50 with thromboxane A2 (TXA2) was determined as 25 nM; in the experiment on leukotriene D4 (LTD4), 72 nM.

Consider `CCCc1c(OCCCC(=O)Nc2cc(CCNS(=O)(=O)c3ccc(Cl)cc3)ccc2OCC(=O)O)ccc(C(C)=O)c1O` [Example 6, 4-[2-(4-chlorobenzenesulfonamido)ethyl]-2-[(4-acetyl-3-hydroxy-2-propyl)phenoxy-4-butamido]phenoxyacetic acid], for which the values for the IC50 with thromboxane A2 (TXA2) and in the experiment on leukotriene D4 (LTD4) were 8.2 nM and 160 nM, respectively.

In the case of `CCCc1c(OCCCCC(=O)Nc2cc(CCNS(=O)(=O)c3ccc(Cl)cc3)ccc2OCC(=O)O)ccc(C(C)=O)c1O` [Example 7, 4-[2-(4-chlorobenzenesulfonamido)ethyl]-2-[(4-acetyl-3-hydroxy-2-propyl)phenoxy-5-pentamido]phenoxyacetic acid], the IC50 was 19 nM in the experiment with thromboxane A2 (TXA2) and 76 nM in the experiment on leukotriene D4 (LTD4).

Consider `CCCc1c(OCCCCCC(=O)Nc2cc(CCNS(=O)(=O)c3ccc(Cl)cc3)ccc2OCC(=O)O)ccc(C(C)=O)c1O` [Example 8, 4-[2-(4-chlorobenzenesulfonamido)ethyl]-2-[(4-acetyl-3-hydroxy-2-propyl)phenoxy-6-hexamido]phenoxyacetic acid], for which the IC50 in the experiment with thromboxane A2 (TXA2) is 40 nM; with leukotriene D4 (LTD4) it was 260 nM.

What is called IC50 is the concentration that inhibits the measured activity by half. Lower therefore signals greater potency.
